# Key:
# [1] = target: protein tyrosine phosphatase 1B (PTP1B) (Homo sapiens, UniProt P18031); settings: cited from earlier work
# [2] = tested on: phosphatases of regenerating liver (PRL); settings: cited from earlier work
# endo-exonuclease = settings: PCT Publication No. WO 01/35935; cited from earlier work
# [3] = in vivo; cited from earlier work
# [4] = in vivo; cited from earlier work; remark: listed apart in the source
# [5] = tested on: Candida albicans, Trichophyton spp., Epidermophyton spp., and Aspergillus spp.; settings: cited from earlier work
# [6] = tested on: collagenase and stromelysin; assay: IL-1 induced collagenase and stromelysin RNA levels in chondrocytes (FIG. 4, 5); type: cell-based; settings: pretreatment
# MMP-1 (collagenase-1) = assay: IL-1 induced MMP-1 (collagenase) mRNA expression in chondrocytes, Northern blot; type: cell-based
# Description: (§1) Cells were treated with paclitaxel at various concentrations (10^−7 to 10^−5 M) for 24 hours, then treated with IL-1β (20 ng/ml) for additional 18 hours in the presence of paclitaxel. Total RNA was isolated, and the MMP-1 mRNA levels were determined by Northern blot analysis. The blots were subsequently stripped and reprobed with ^32P-radiolabeled rat GAPDH cDNA, which was used as a housekeeping gene. […] Quantitation of collagenase-1 and stromelysin-expression mRNA levels were conducted. The MMP-1 and MMP-3 expression levels were normalized with GAPDH.
# [7] = tested on: knee joint (synovial cavity); assay: Maximum tolerated dose (MTD) of a drug after intra-articular injection; settings: for MTD (dose for which knee inflammation was not observed): 0.1 mL intra-articular
# Description: Male Hartley guinea pigs, at least 6 weeks old, were anaesthetized using 5% isoflurane in an enclosed chamber. The animals were weighed and then transferred to the surgical table where anesthesia was maintained by nose cone with 2% isoflurane. The knee area on both legs was shaved and knee width at the head of the femur was measured on both knees. The skin on the right knee was sterilized. A 25G needle was introduced into the synovial cavity using a medial approach and 0.1 mL of the test formulation was injected. Three or seven days after the injection, the animals were sacrificed by cardiac injection of 0.7 mL Euthanyl under deep anesthesia (5% isoflurane). Sample size was N=3 for each formulation.
# Knee function was assessed before sacrifice by recording changes in walking behavior and signs of tenderness. The animal was weighed immediately after sacrifice. The width of both knees at the head of the femur was then measured with calipers. The knee joint was dissected open by transecting the quadriceps tendon, cutting through the lateral and medial articular capsule and flipping the patella over the tibia. Knee inflammation was assessed by recording signs of swelling, vascularization, fluid accumulation and change in color in subcutaneous tissue as well as inner joint structures. Photographs were taken to document findings. All data was recorded by observers blinded to the treatment groups.
# AP-1 [8] = assay: IL-1 stimulated AP-1 transcriptional activity (AP-1 driven CAT reporter gene) in transfected chondrocytes; type: cell-based; settings: paclitaxel 10^−7 to 10^−5 M, concentration dependent; IL-1 50 ng/ml, 24 hours
# Description: Chondrocytes were transfected with constructs containing an AP-1 driven CAT reporter gene, and stimulated with IL-1, IL-1 (50 ng/ml) was added and incubated for 24 hours in the absence and presence of paclitaxel at various concentrations. […] The data noted with an asterisk (*) have significance compared with IL-1-induced CAT activity according to a t-test, P<0.05. The results shown are representative of three independent experiments.
# AP-1 [9] = assay: IL-1 induced AP-1 binding activity in chondrocyte lysates (FIG. 3); type: cell-based; settings: lysates from chondrocytes pretreated with paclitaxel
# MMP-3 (stromelysin) = assay: IL-1 induced MMP-3 (stromelysin) mRNA expression in chondrocytes, Northern blot; type: cell-based
# Description: as §1
# cartilage = assay: Hartley guinea pig knees with ACL damage, joint and cartilage score (FIG. 7, 8); type: in vivo
# [10] = tested on: ACL injured guinea pig knees (osteoarthritis); assay: Inhibition of cartilage damage in the ACL injured Hartley guinea pig model of osteoarthritis; type: in vivo, Hartley guinea pigs; settings: hyaluronic acid formulation; low dose (dose 1) and medium dose (dose 2); 5 weekly intra-articular injections; ten weeks after injury
# Source text: The skin on the right knee was sterilized. A 20G needle was introduced in the knee joint using a medial approach and the anterior cruciate ligament was cut with the sharp end of the needle.
# Two weeks after the initial procedure, the animals were anesthetized with isoflurane (5% induction −2% maintenance) and weighed. […] The skin of the injured knee was sterilised. […] Injections were repeated weekly for a total of 5 injections. Sample size was N=12 for each formulation. Two doses of paclitaxel and control formulation were tested.
# A final knee measurement was taken. The skin over the knee area was removed without damaging subcutaneous tissues. The knee joints were then harvested en bloc and placed into a formaldehyde (37%)/acetic acid solution (5:1 ratio) for fixation. Samples were sent to an independent laboratory for the conduct of histological preparation of joints and assessment by a pathologist for signs of cartilage damage.
# Briefly knee sections were made to examine cartilage and slides were stained with H&E stain. […] Bar graphs were constructed from each group and compared.
# AP-1 [11] = assay: IL-1 induced AP-1 DNA binding activity, gel mobility shift assay with chondrocyte extracts; type: cell-based; settings: chondrocytes pretreated with paclitaxel 10^−7 to 10^−5 M for 24 hours
# Description: Binding activity was assayed with a radiolabeled human AP-1 sequence probe and gel mobility shift assay. Extracts from chondrocytes untreated or treated with various amounts of paclitaxel (10^−7to 10^−5 M) followed by IL-1β (20 ng/ml) were incubated with excess probe on ice for 30 minutes, followed by non-denaturing gel electrophoresis. The “com” lane contains excess unlabeled AP-1 oligonucleotide. The results shown are representative of three independent experiments.
# [12] = tested on: Chick Chorioallantoic Membrane (CAM); assay: Chick chorioallantoic membrane (CAM) angiogenesis assay; type: in vivo; settings: for Inhibition/n: 48 hours exposure
# Description: Fertilized, domestic chick embryos were incubated for 3 days prior to shell-less culturing. In this procedure, the egg contents were emptied by removing the shell located around the air space. The interior shell membrane was then severed and the opposite end of the shell was perforated to allow the contents of the egg to gently slide out from the blunted end. The egg contents were emptied into round-bottom sterilized glass bowls and covered with petri dish covers. These were then placed into an incubator at 90% relative humidity and 3% CO2 and incubated for 3 days.
# Paclitaxel (Sigma, St. Louis, […].) was mixed at concentrations of 0.25, 0.5, 1, 5, 10, 30 μg per 10 ul aliquot of 0.5% aqueous methylcellulose. […] Ten microliter aliquots of this solution were dried on parafilm for 1 hour forming disks 2 mm in diameter. The dried disks containing paclitaxel were then carefully placed at the growing edge of each CAM at day 6 of incubation. Controls were obtained by placing paclitaxel-free methylcellulose disks on the CAMs over the same time course. After a 2 day exposure (day 8 of incubation) the vasculature was examined with the aid of a stereomicroscope. Liposyn II, a white opaque solution, was injected into the CAM to increase the visibility of the vascular details. The vasculature of unstained, living embryos were imaged using a Zeiss stereomicroscope which was interfaced with a video camera (Dage-MTI Inc., Michigan City, Ind.). […] Image negatives were then made on a graphics recorder (Model 3000; Matrix Instruments, Orangeburg, N.Y.).
# The membranes of the 8 day-old shell-less embryo were flooded with 2% glutaraldehyde in 0.1 M sodium cacodylate buffer; additional fixative was injected under the CAM. After 10 minutes in situ, the CAM was removed and placed into fresh fixative for 2 hours at room temperature. The tissue was then washed overnight in cacodylate buffer containing 6% sucrose. The areas of interest were postfixed in 1% osmium tetroxide for 1.5 hours at 4° C. The tissues were then dehydrated in a graded series of ethanols, solvent exchanged with propylene oxide, and embedded in Spurr resin. Thin sections were cut with a diamond knife, placed on copper grids, stained, and examined in a Joel 1200EX electron microscope. Similarly, […] sections were cut and stained with […] for light microscopy.
# At day 11 of development, chick embryos were used for the corrosion casting technique. Mercox resin (Ted Pella, Inc., Redding, Calif.) was injected into the CAM vasculature using a 30-gauge hypodermic needle. […] After injection, the plastic was allowed to sit in situ for an hour at room temperature and then overnight in an oven at 65° C. The CAM was then placed in 50% aqueous solution of sodium hydroxide to digest all organic components. The plastic casts were washed extensively in distilled water, air-dried, coated with gold/palladium, and viewed with the Philips 501B scanning electron microscope.
# After 48 hours exposure to paclitaxel at concentrations of 0.25, 0.5, 1, 5, 10, or 30 μg, each CAM was examined under living conditions with a stereomicroscope equipped with a video/computer interface in order to evaluate the effects on angiogenesis. This imaging setup was used at a magnification of 160× which permitted the direct visualization of blood cells within the capillaries; thereby blood flow in areas of interest may be easily assessed and recorded. For this study, the inhibition of angiogenesis was defined as an area of the CAM (measuring 2-6 mm in diameter) lacking a capillary network and vascular blood flow. Throughout the experiments, avascular zones were assessed on a 4 point avascular gradient (see the table below). This scale represents the degree of overall inhibition with maximal inhibition represented as a 3 on the avascular gradient scale. Paclitaxel was very consistent and induced a maximal avascular zone (6 mm in diameter or a 3 on the avascular gradient scale) within 48 hours depending on its concentration. […]
# [13] = tested on: Candida spp., Aspergillus spp., Sporothrix schenckii, Penicillium marneffei, Malassezia furfur, Cryptococcus neoformans, Trichosporon spp. and …; settings: against most of the listed species; cited from earlier work
# [14] = 10^−5 M paclitaxel, pretreatment 24 hours
# Chain of protein tyrosine phosphatase 1B (PTP1B) (P18031 whole entry): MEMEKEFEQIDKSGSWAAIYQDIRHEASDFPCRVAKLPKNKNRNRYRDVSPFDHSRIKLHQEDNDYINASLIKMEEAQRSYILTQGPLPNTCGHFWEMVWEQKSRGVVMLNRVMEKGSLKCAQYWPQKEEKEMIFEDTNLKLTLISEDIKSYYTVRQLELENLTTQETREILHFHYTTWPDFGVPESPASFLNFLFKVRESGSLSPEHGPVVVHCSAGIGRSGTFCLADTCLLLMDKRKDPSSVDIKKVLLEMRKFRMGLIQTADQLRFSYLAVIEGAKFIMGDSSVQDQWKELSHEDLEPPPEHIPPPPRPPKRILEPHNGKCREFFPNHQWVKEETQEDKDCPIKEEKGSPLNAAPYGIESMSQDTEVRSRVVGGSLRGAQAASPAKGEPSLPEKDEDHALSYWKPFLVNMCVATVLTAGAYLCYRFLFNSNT
structure (smiles),measurement,setting,value
N=C(N)c1ccc(OCCCCCOc2ccc(C(=N)N)cc2)cc1 [pentamidine],inhibition of PTP1B,[1],effective inhibitor
same,inhibition of oncogenic phosphatases of regenerating liver,[2],potent inhibitor
same,inhibition of the activity of endo-exonuclease,endo-exonuclease,inhibit the activity
"CN(C)/N=N/c1[nH]cnc1C(N)=O [Dacarbazine, dacarbazine]",absorption from the GI tract,[3],poorly absorbed
"O=C(Nc1ccc([N+](=O)[O-])cc1Cl)c1cc(Cl)ccc1O [Niclosamide, niclosamide]",toxicity in mammals,[4],very low toxicity
"Cc1cc(C2CCCCC2)n(O)c(=O)c1 [Ciclopirox, ciclopirox]",antifungal activity,[5],fungistatic and fungicidal
CC(=O)O[C@H]1C(=O)[C@@]2(C)[C@H]([C@H](OC(=O)c3ccccc3)[C@]3(O)C[C@H](OC(=O)[C@H](O)[C@@H](NC(=O)c4ccccc4)c4ccccc4)C(C)=C1C3(C)C)[C@]1(OC(C)=O)CO[C@@H]1C[C@@H]2O [paclitaxel],IL-1 induction of collagenase and stromelysin RNA levels,[6],can be inhibited
same,IL-1 induced collagenase mRNA levels,MMP-1 (collagenase-1); [14],complete inhibition
same,concentration capable of inhibiting collagenase expression in vitro,MMP-1 (collagenase-1); chondrocytes,10^−6 M
same,MTD (dose for which knee inflammation was not observed),"[7]; co-solvent formulation, 3 day evaluation",1.5 mg/mL
same,MTD (dose for which knee inflammation was not observed),"[7]; triblock gel formulation according to Example 34, evaluation at 7 days",0.075 mg/mL
same,tolerated doses,"[7]; triblock gel formulation, evaluation after three days",up to 0.15 mg/ml
same,IL-1 induced AP-1 reporter gene CAT activity,AP-1 [8],reduced IL-1 induced AP-1 reporter gene CAT activity
same,IL-1 induced binding activity,AP-1 [9],decreased
same,IL-1 induced stromelysin mRNA levels,MMP-3 (stromelysin); [14],complete inhibition
same,concentration capable of inhibiting stromelysin expression in vitro,MMP-3 (stromelysin); chondrocytes,10^−6 M
same,"average rank of joint scores, dose response trend","cartilage; Hartley guinea pig knees with ACL damage, p<0.02",statistically significant
same,cartilage in knee cross section,cartilage; dose 1 (low dose),fraying of cartilage
same,cartilage in knee cross section,cartilage; dose 2 (medium dose),minor defects to cartilage
same,cartilage damage (pathologist score),[10],statistical reduction in cartilage damage relative to control
same,IL-1 induced AP-1 binding to oligonucleotides,AP-1 [11],IL-1 induced binding activity decreased
same,Inhibition/n,[12]; 0.25 ug in methylcellulose (10 ul),2/11
same,Inhibition/n,[12]; 0.5 ug in methylcellulose (10 ul),6/11
same,Inhibition/n,[12]; 1 ug in methylcellulose (10 ul),6/15
same,Inhibition/n,[12]; 5 ug in methylcellulose (10 ul),20/27
same,Inhibition/n,[12]; 10 ug in methylcellulose (10 ul),16/21
same,Inhibition/n,[12]; 30 ug in methylcellulose (10 ul),31/31
same,maximal avascular zone on the avascular gradient scale,[12]; within 48 hours depending on concentration,3
"CN(C/C=C/C#CC(C)(C)C)Cc1cccc2ccccc12.Cl [terbinafine, terbinafine hydrochloride]",in vitro antifungal activity,[13],has activity

# From US20070299043A1, “Anti-scarring drug combinations and use thereof” (priority 2005, published 2007)
